The test system of assay [1] is Apomorphine-induced agitation. The assay is described as follows: Reversal of Apomorphine-induced Agitation in Rats (APO). The class given is in vivo, rat. Particulars: for PO Max effect (cumulative agitation score over 60 min) / SC Max effect (cumulative agitation score over 60 min): apomorphine 1.0 mg/kg i.v.; for PO LAD (lowest active dose) / SC LAD (lowest active dose): lowest dose at which ≥67% tested animals respond; for SC Dose at max effect / SC Max effect (cumulative agitation score over 60 min) / SC LAD (lowest active dose): subcutaneous route.
Description: Apomorphine (1.0 mg/kg, i.v.)-induced agitation was scored every 5 min over the first hour after injection of apomorphine. The score system was: (3) pronounced, (2) moderate, (1) slight, and (0) absent. […] For the present purpose, the cumulative agitation score over the whole 60-min observation period was used as a measure to describe the maximum effect (Max effect).

The target in assay [2] is T1, Rat recombinant PDE10A (rPDE10A2) (Rattus norvegicus, UniProt Q9QYJ6).
T1 construct: made in house; host or cells: Sf9 insect cells (baculovirus)
T1 sequence (Q9QYJ6 1-794): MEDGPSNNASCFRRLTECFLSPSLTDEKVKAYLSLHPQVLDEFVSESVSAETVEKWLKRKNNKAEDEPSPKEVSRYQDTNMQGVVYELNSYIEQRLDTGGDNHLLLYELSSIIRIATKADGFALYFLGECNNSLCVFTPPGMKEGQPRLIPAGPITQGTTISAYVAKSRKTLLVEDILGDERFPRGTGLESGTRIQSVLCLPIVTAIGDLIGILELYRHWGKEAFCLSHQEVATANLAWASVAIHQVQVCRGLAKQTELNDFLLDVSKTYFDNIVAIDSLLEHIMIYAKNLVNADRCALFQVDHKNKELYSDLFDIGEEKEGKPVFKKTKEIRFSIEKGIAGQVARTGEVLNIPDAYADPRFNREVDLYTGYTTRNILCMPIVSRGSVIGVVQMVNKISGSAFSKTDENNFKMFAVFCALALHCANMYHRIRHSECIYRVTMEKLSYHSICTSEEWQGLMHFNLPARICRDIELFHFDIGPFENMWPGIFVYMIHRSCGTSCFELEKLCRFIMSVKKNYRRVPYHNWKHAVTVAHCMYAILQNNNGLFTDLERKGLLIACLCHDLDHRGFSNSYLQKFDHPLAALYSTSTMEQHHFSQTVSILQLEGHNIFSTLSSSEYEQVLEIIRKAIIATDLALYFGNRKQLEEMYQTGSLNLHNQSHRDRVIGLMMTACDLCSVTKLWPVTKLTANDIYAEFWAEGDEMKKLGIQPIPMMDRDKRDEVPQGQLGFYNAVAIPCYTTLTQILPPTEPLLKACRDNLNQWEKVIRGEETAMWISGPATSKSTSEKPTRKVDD
Description: In vitro assay PDE10A (SPA, 3H-cAMP). The class given is biochemical. Particulars: read-out: PIC50 PDE10 (converted).

Assay [3] deals with T2, Human recombinant PDE2A (hPDE2A) (Homo sapiens, UniProt O00408).
T2 construct: made in house; host or cells: Sf9 insect cells (baculovirus)
The assay is described as follows: In vitro assay PDE2A (SPA, 3H-cGMP). The note with it: read-out: pIC50 PDE2 (converted). The class given is biochemical.
Description: Tested compounds were dissolved and diluted in 100% DMSO to a concentration 100 fold of the final concentration in the assay. Compound dilutions (0.4 μl) were added in 384 well plates to 20 μl of incubation buffer (50 mM Tris pH 7.8, 8.3 mM MgCl2, 1.7 mM EGTA). 10 μl of hPDE2A enzyme in incubation buffer was added and the reaction was started by addition of 10 μl substrate to a final concentration of 10 μM cGMP and 0.01 μCi ^3H-cGMP. The reaction was incubated for 45 minutes at room temperature. […] After sedimentation of the beads during 30 minutes the radioactivity was measured in a Perkin Elmer Topcount scintillation counter and results were expressed as cpm. For blanc values the enzyme was omitted from the reaction and replaced by incubation buffer. Control values were obtained by addition of a final concentration of 1% DMSO instead of compound.

[4] abbreviates: -log IC50 expressed in mol/L, rPDE10A2, 60 nM cAMP.

Structures are written as SMILES. Read-outs that look alike come from different tables or passages of the source.

T2 sequence (O00408 whole entry): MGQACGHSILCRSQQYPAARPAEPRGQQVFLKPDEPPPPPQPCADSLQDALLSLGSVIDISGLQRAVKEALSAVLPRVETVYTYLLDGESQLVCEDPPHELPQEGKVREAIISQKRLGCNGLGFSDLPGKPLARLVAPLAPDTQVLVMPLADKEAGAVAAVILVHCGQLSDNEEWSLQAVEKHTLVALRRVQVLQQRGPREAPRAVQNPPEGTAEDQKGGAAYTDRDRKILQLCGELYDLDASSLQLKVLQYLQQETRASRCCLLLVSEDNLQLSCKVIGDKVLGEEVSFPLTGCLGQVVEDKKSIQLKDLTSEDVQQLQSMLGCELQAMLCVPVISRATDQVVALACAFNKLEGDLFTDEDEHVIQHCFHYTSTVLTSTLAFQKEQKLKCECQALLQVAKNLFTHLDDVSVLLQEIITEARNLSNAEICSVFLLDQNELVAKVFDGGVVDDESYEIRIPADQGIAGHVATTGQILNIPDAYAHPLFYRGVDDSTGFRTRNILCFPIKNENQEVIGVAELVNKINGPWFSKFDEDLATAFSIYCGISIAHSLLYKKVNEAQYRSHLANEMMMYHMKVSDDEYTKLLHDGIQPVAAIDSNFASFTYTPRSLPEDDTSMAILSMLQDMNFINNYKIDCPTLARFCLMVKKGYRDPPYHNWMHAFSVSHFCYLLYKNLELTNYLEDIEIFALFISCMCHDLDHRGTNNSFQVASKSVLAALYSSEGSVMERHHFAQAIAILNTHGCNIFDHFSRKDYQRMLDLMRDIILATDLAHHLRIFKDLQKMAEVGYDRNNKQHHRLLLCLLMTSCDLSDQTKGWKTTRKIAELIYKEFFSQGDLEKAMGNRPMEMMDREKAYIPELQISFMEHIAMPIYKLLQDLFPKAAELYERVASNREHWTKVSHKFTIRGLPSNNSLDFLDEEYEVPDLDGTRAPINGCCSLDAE

Turning to `CNC(=O)c1ccc2nc(C)c3nnc(-c4ccccc4Cl)n3c2c1` [Compound B-46], in assay [1], the PO Dose at Max Effect worked out at 10 mg/kg, the “PO Max effect (cumulative agitation score over 60 min)” value is 21 and the PO LAD (lowest active dose) was over 10 mg/kg. In addition, the IC50 in assay [2] is 20 nM. For the same molecule, the IC50 in assay [3] is 1.95 nM.
As to `Cc1ncccc1-c1nnc2c(C)nc3ccc(CN4CCOCC4)cc3n12` [Compound B-118], in assay [1], the SC Dose at max effect stood at 10 mg/kg, the “SC Max effect (cumulative agitation score over 60 min)” value is 17 and the SC LAD (lowest active dose) came out at 10 mg/kg. For the same molecule, the IC50 in assay [2] is 117 nM. Moreover, in assay [3], the IC50 is 25.7 nM.
On to `Cc1nc2ccc(C(=O)NC3CCN(C)CC3)cc2n2c(-c3ccccc3Cl)nnc12` [Compound B-47], for which, in assay [1], the SC Dose at max effect was determined as 10 mg/kg, the “SC Max effect (cumulative agitation score over 60 min)” value is listed as 22 and the SC LAD (lowest active dose) was over 10 mg/kg. The IC50 in assay [2] is 145 nM. The IC50 in assay [3] was 2.04 nM.
`Cc1nc2ccc(NCCN3CCOCC3)cc2n2c(-c3ccccc3Cl)nnc12` [Compound B-71]: in assay [1], the SC Dose at max effect is 10 mg/kg, the “SC Max effect (cumulative agitation score over 60 min)” value is 15 and the SC LAD (lowest active dose) stood at 10 mg/kg. For the same molecule, the IC50 in assay [2] is 19.1 nM. The IC50 in assay [3] was 6.31 nM.
For `C=Cc1ccc2nc(C)c3nnc(-c4ccccc4Cl)n3c2c1` [Compound B-14, 1-(2-Chlorophenyl)-8-ethenyl-4-methyl[1,2,4]triazolo[4,3-a]quinoxaline], in assay [1], the PO Dose at Max Effect was found to be 10 mg/kg, the “PO Max effect (cumulative agitation score over 60 min)” value was determined as 21 and the PO LAD (lowest active dose) is over 10 mg/kg. The IC50 in assay [2] is 37.2 nM. The IC50 in assay [3] was 7.08 nM.
As for `CCOCc1ccc2nc(C)c3nnc(-c4ccccc4)n3c2c1` [Compound B-12, 8-(Ethoxymethyl)-4-methyl-1-phenyl[1,2,4]triazolo[4,3-a]quinoxaline], in assay [1], the SC Dose at max effect is 10 mg/kg, the “SC Max effect (cumulative agitation score over 60 min)” value came out at 19 and the SC LAD (lowest active dose) turned out to be 10 mg/kg. Also, the IC50 in assay [2] is 269 nM. Moreover, the IC50 in assay [3] is 21.4 nM.
As to `Cc1nc2ccc(C(=O)NCCN3CCCC3)cc2n2c(-c3ccccc3Cl)nnc12` [Compound B-48], in assay [1], the SC Dose at max effect stood at 10 mg/kg, the “SC Max effect (cumulative agitation score over 60 min)” value worked out at 24 and the SC LAD (lowest active dose) is over 10 mg/kg. Besides, in assay [2], the IC50 is 61.7 nM. Moreover, in assay [3], the IC50 was 2.09 nM.
For the molecule `COc1ccc(-c2nnc3c(C)nc4ccc(C(=O)NCc5ccccn5)cc4n23)c(Cl)c1` [Compound B-74], in assay [1], the PO Dose at Max Effect turned out to be 10 mg/kg, the “PO Max effect (cumulative agitation score over 60 min)” value came out at 21 and the PO LAD (lowest active dose) is over 10 mg/kg. The IC50 in assay [2] was 129 nM. The IC50 in assay [3] was 6.92 nM.
With `Cc1nc2ccc(N3CCN(C)CC3)cc2n2c(-c3ccccc3Cl)nnc12` [Compound B-16, 1-(2-Chlorophenyl)-4-methyl-8-(4-methylpiperazin-1-yl)[1,2,4]triazolo[4,3-a]quinoxaline], in assay [1], the SC Dose at max effect was found to be 2.5 mg/kg, the “SC Max effect (cumulative agitation score over 60 min)” value was found to be 21 and the SC LAD (lowest active dose) was over 2.5 mg/kg. Besides, the IC50 in assay [2] was 26.9 nM. In assay [3], the IC50 was 5.25 nM.
On the same counts, the results for `Cc1nc2ccc(CNC3CCOCC3)cc2n2c(-c3ccccc3Cl)nnc12` [Compound B-76] are 10 mg/kg, 16, 10 mg/kg, 45.7 nM and 7.08 nM.
On the same counts, the results for `Cc1nc2ccc(CN3CCOC(CCF)C3)cc2n2c(-c3ccccc3Cl)nnc12` (stereo not shown) [Compound B-89] are 5 mg/kg, 24, over 5 mg/kg, 50.1 nM and 11.7 nM.
Turning to `CCNC(=O)c1ccc2nc(C)c3nnc(-c4ccccc4F)n3c2c1` [Compound B-51], in assay [1], the PO Dose at Max Effect came to 10 mg/kg, the “PO Max effect (cumulative agitation score over 60 min)” value came to 21 and the PO LAD (lowest active dose) was over 10 mg/kg. For the same molecule, the IC50 in assay [2] (setting [4]) was 155 nM. Further, the IC50 in assay [3] is 2.51 nM.
Turning to `CCOc1ccc(Cl)c(-c2nnc3c(C)nc4ccc(OCCc5cccnc5)cc4n23)c1` [Compound B-121], in assay [1], the SC Dose at max effect was found to be 10 mg/kg, the “SC Max effect (cumulative agitation score over 60 min)” value is given as 21 and the SC LAD (lowest active dose) was over 10 mg/kg. Besides, the IC50 in assay [2] was 145 nM. Besides, the IC50 in assay [3] is 33.9 nM.
`Cc1ncccc1-c1nnc2c(C)nc3ccc(C(F)(F)F)cc3n12` [Compound B-167]: in assay [1], the PO Dose at Max Effect is 10 mg/kg, the “PO Max effect (cumulative agitation score over 60 min)” value was 19 and the PO LAD (lowest active dose) is 10 mg/kg. Besides, the IC50 in assay [2] is 263 nM. Besides, the IC50 in assay [3] is 95.5 nM.
Turning to `COc1ccccc1-c1nnc2c(C)nc3ccc(C(=O)NCc4ccccn4)cc3n12` [Compound B-53], in assay [1], the PO Dose at Max Effect is 10 mg/kg, the “PO Max effect (cumulative agitation score over 60 min)” value amounted to 24 and the PO LAD (lowest active dose) was over 10 mg/kg. The IC50 in assay [2] was 37.2 nM. The IC50 in assay [3] is 3.09 nM.
`Cc1nc2ccc(O)cc2n2c(-c3ccccc3Cl)nnc12` [Compound B-13, 1-(2-Chlorophenyl)-4-methyl[1,2,4]triazolo[4,3-a]quinoxalin-8-ol]: in assay [1], the PO Dose at Max Effect is 10 mg/kg, the “PO Max effect (cumulative agitation score over 60 min)” value is given as 19 and the PO LAD (lowest active dose) was found to be 10 mg/kg. Moreover, the IC50 in assay [2] was 45.7 nM. Moreover, in assay [3], the IC50 was 2 nM.
As to `Cc1nc2ccc(CN3CCOC(CCO)C3)cc2n2c(-c3ccccc3Cl)nnc12` (stereo not shown) [Compound B-63], in assay [1], the SC Dose at max effect was determined as 10 mg/kg, the “SC Max effect (cumulative agitation score over 60 min)” value came out at 19 and the SC LAD (lowest active dose) was found to be 10 mg/kg. The IC50 in assay [2] is 9.33 nM. Further, the IC50 in assay [3] was 5.62 nM.
As for `Cc1nc2ccc(CN3CCC(F)CC3)cc2n2c(-c3ccccc3Cl)nnc12` [Compound B-61], in assay [1], the SC Dose at max effect was determined as 10 mg/kg, the “SC Max effect (cumulative agitation score over 60 min)” value turned out to be 15 and the SC LAD (lowest active dose) was 10 mg/kg. Moreover, the IC50 in assay [2] is 20 nM. For the same molecule, the IC50 in assay [3] was 5.5 nM.
`CCOC(=O)c1ccc2nc(C)c3nnc(-c4ccccc4Cl)n3c2c1` [Compound B-1a, Ethyl 1-(2-chlorophenyl)-4-methyl[1,2,4]triazolo[4,3-a]quinoxaline-8-carboxylate]: in assay [1], the PO Dose at Max Effect turned out to be 2.5 mg/kg, the “PO Max effect (cumulative agitation score over 60 min)” value came to 22 and the PO LAD (lowest active dose) was over 2.5 mg/kg. In assay [2] (setting [4]), the IC50 was 58.9 nM. The IC50 in assay [3] is 4.27 nM.
In the case of `Cc1nc2ccc(C(=O)NCc3ccncc3)cc2n2c(-c3ccccc3)nnc12` [Compound B-83], in assay [1], the SC Dose at max effect turned out to be 2.5 mg/kg, the “SC Max effect (cumulative agitation score over 60 min)” value is recorded as 29 and the SC LAD (lowest active dose) is over 10 mg/kg. Further, the IC50 in assay [2] is 102 nM. The IC50 in assay [3] was 9.77 nM.
For `Cc1ncccc1-c1nnc2c(C)nc3ccc(OC(F)(F)F)cc3n12` [Compound B-168], in assay [1], the PO Dose at Max Effect worked out at 10 mg/kg, the “PO Max effect (cumulative agitation score over 60 min)” value is on record as 16 and the PO LAD (lowest active dose) amounted to 10 mg/kg. In addition, the IC50 in assay [2] was 174 nM. Moreover, the IC50 in assay [3] is 97.7 nM.
Take `Cc1nc2ccc(C(=O)NCCN3CCCCC3)cc2n2c(-c3ccccc3Cl)nnc12` [Compound B-45]: in assay [1], the SC Dose at max effect came out at 10 mg/kg, the “SC Max effect (cumulative agitation score over 60 min)” value is given as 21 and the SC LAD (lowest active dose) is over 10 mg/kg. In addition, in assay [2], the IC50 was 74.1 nM. The IC50 in assay [3] is 1.95 nM.
In the case of `Cc1nc2ccc(CN3CCC(O)CC3)cc2n2c(-c3ccccc3Cl)nnc12` [Compound B-81], in assay [1], the SC Dose at max effect was determined as 10 mg/kg, the “SC Max effect (cumulative agitation score over 60 min)” value is on record as 19 and the SC LAD (lowest active dose) is 10 mg/kg. Further, in assay [2] (setting [4]), the IC50 was 37.2 nM. Also, the IC50 in assay [3] was 9.55 nM.
